In US20240018120A1, “MAGL INHIBITORS” (H. LUNDBECK A/S, priority 2020, published 2024):

Assays:
[1] = test system: maximal electroshock seizure threshold (MEST) model; assay: Maximal electroshock seizure threshold (MEST) model in the rat; assay type: in vivo; details: 10 mg/kg p.o., 240 min pre-treatment
Procedure: In the MEST model, a low-intensity electrical current of high frequency and short duration is applied to induce tonic convulsions.
Animals were randomly assigned to vehicle, compound treatment or Lamotrigine dose groups. Animals were dosed at 5 mL/kg according to treatment groups (n=12 or 16/group), with either vehicle (0.5% MC) p.o. for Example 6, vehicle (10% HP-b-CD) for Example 8, test compound at 10 mg/kg p.o. 240 min pre-treatment time, or Lamotrigine p.o. 360 min pre-treatment time. Rats were individually assessed for production of a tonic hind limb extensor seizure following a single corneally delivered electroshock of 0.3 second duration, using an ‘up and down method’ of shock titration (Kimball A W et al., 1957). Thus, the first rat within a treatment group was given a shock at the expected or estimated CC50 current (current producing tonic hind limb extensor seizures in 50% of animals). […] This procedure was continued for all rats within a treatment group. Induction of seizure was measured as an all-or-nothing effect scored as either present (+) or absent (0) for each animal. […]
Significant differences between drug-treated animals and controls were assessed according to Litchfield and Wilcoxon (1949) or One-Way ANOVA followed by Dunnett's multiple comparisons test.

[2] = test system: kainic acid seizure model; assay: Kainic acid seizure model in the rat; assay type: in vivo
Procedure: Kainic acid is an analog of the excitatory neurotransmitter, glutamate and acts as an agonist of kainic acid receptors. After systemic injection, kainic acid induces prolonged excitatory responses with many of the features of human temporal lobe epilepsy.
Rats, placed in individual Plexiglas cages (33×21×18 cm), are injected with kainic acid (20 mg/kg i.p.). The occurrences of the following symptoms are noted over a 120-minute period 30 minutes after kainic acid injection: forelimb clonus, rearings and rearings with falling, clonic convulsions, tonic convulsions and death. The presence of each symptom and the latencies to the first appearance of the symptoms are measured. The number of forelimb clonus is counted.
12 rats are studied per group. The test is performed partially blind.
The test substances will be evaluated at multiple doses, administered p.o. 240 minutes before the test, and compared with the corresponding vehicle control group (Group 2, administered with 10% HP-b-CD in distilled water, p.o. 240 minutes before the test).
Example 6 was evaluated at 0.3, 1, 3 and 10 mg/kg, and Example 8 was evaluated at 1, 3 and 10 mg/kg, administered p.o. 4 hours before the test, and compared with a vehicle control group (administered with 10% HP-b-CD, p.o. 4 hours before the test).
Diazepam (16 mg/kg) used as reference substance, was administered p.o. 60 minutes before the test (0.5% HP-b-CD) and was compared with vehicle controls.
Quantitative data (latencies) with the test substance was analyzed by comparing treated groups with vehicle control using Kruskal-Wallis test followed by Mann-Whitney U test. Quantitative data with the reference substance will be analysed using Mann-Whitney U test.
Quantal data (frequencies) were analyzed by comparing treated groups with vehicle control using Fisher's Exact Probability tests.

SMILES: O=C(Nc1cccnn1)[C@H]1CC12CCN(C(=O)OC(C(F)(F)F)C(F)(F)F)CC2 [Example 6, 1,1,1,3,3,3-Hexafluoropropan-2-yl (S)-1-(pyridazin-3-ylcarbamoyl)-6-azaspiro[2.5]octane-6-carboxylate]
- anticonvulsant activity in the MEST (seizure threshold CC50) [1]: anticonvulsant activity
- anticonvulsant effects in the kainic acid seizure test ([2]; dose-range 0.3-10 mg/kg p.o., 4 hours before the test, rat): clear anticonvulsant effects
- magnitude of the effects in the kainic acid seizure test compared with reference ([2]; middle-high doses, reference Diazepam 16 mg/kg p.o.): close to those observed with the reference substance, Diazepam
